Laboratory results taken from patent US20110071150A1 (priority 2009, published 2011).

Tested on: Jurkat IL-2 Production
Experiment: Jurkat IL-2 Production Assay
Type: cell-based
Conditions: Homo sapiens, Jurkat cell (ATCC), 18-20 h incubation, PHA 5 μg/mL with 1% FBS, or PMA/Ionomycin with 30% FBS (table does not say which)
Summary of the method: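 Jurkat cells were exposed to compound (0.25% DMSO final) for 10 min, then stimulated for 18–20 h at 37 °C. The 1% FBS condition used 5 μg/mL PHA; the high-serum condition (30% FBS) used 50 ng/mL PMA plus 500 ng/mL ionomycin. IC50 was derived from IL-2 production.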

In order of rising IC50:
1. CCn1nc(-c2cccnc2)nc1-c1ccc2[nH]c(-c3c(F)cccc3F)cc2c1 [Example 205, 2-(2,6-Difluoro-phenyl)-5-(2-ethyl-5-pyridin-3-yl-2H-[1,2,4]triazol-3-yl)-1H-indole]  24 nM
2. Cc1cccc(F)c1-c1cc2cc(-c3nc(-c4cccnc4)sc3C)ccc2[nH]1 [Example 220, 2-(2-Fluoro-6-methyl-phenyl)-5-(5-methyl-2-pyridin-3-yl-thiazol-4-yl)-1H-indole]  24 nM
3. CCc1sc(-c2cccnc2)nc1-c1ccc2[nH]c(-c3c(F)cccc3F)cc2c1 [Example 207, 2-(2,6-Difluoro-phenyl)-5-(5-ethyl-2-pyridin-3-yl-thiazol-4-yl)-1H-indole]  26 nM
4. Cn1nc(C(F)(F)F)cc1-c1ccc2[nH]c(C3CCCCC3)cc2c1 [Example 222]  40 nM
5. Cc1cc(S(C)(=O)=O)ncc1-c1ccc2[nH]c(-c3cnccc3C)cc2c1 [Example 214, 5-(6-Methanesulfonyl-4-methyl-pyridin-3-yl)-2-(4-methyl-pyridin-3-yl)1indole]  41 nM
6. Cc1sc(-c2cnccn2)nc1-c1ccc2[nH]c(-c3c(F)cccc3F)cc2c1 [Example 206, 2-(2,6-Difluoro-phenyl)-5-(5-methyl-2-pyrazin-2-yl-thiazol-4-yl)-1H-indole]  51 nM
7. Cc1cc(-c2cnc(N)nc2)ncc1-c1ccc2[nH]c(-c3c(F)cccc3F)cc2c1 [Example 209, 5-{5-[2-(2,6-Difluoro-phenyl)-1H-indol-5-yl]-4-methyl-pyridin-2-yl}-pyrimidin-2-ylamine]  54 nM
8. Cc1cc(S(=O)(=O)N(C)C)ccc1-c1ccc2[nH]c(C3CCCCC3)cc2c1 [Example 223, 4-(2-cyclohexyl-1H-indol-5-yl)-N,N,3-trimethylbenzenesulfonamide]  54 nM
9. Cc1cc(-c2cncnc2)ncc1-c1ccc2[nH]c(-c3c(F)cccc3F)cc2c1 [Example 210, 2-(2,6-Difluoro-phenyl)-5-(4-methyl-6-pyrimidin-5-yl-pyridin-3-yl)-1H-indole]  60 nM
10. COc1cc(C)c(-c2ccc3[nH]c(C4CCCCC4)cc3c2)cn1 [Example 224, 2-cyclohexyl-5-(6-methoxy-4-methylpyridin-3-yl)-1H-indole]  83 nM
11. Cc1cccc(F)c1-c1cc2cc(-c3nc(-c4ccccn4)sc3C)ccc2[nH]1 [Example 221, 2-(2-Fluoro-6-methyl-phenyl)-5-(5-methyl-2-pyridin-2-yl-thiazol-4-yl)-1H-indole]  95 nM
12. Cc1cc(-c2ncco2)ncc1-c1ccc2[nH]c(-c3c(F)cccc3F)cc2c1 [Example 208, 2-(2,6-Difluoro-phenyl)-5-(4-methyl-6-oxazol-2-yl-pyridin-3-yl)-1H-indole]  97 nM
13. Cc1sc(-c2ccccn2)nc1-c1ccc2[nH]c(-c3c(Cl)cccc3Cl)cc2c1 [Example 217, 2-(2,6-Dichloro-phenyl)-5-(5-methyl-2-pyridin-2-yl-thiazol-4-yl)-1H-indole]  100 nM
14. COc1cc(C#N)ccc1-c1ccc2[nH]c(-c3cnccc3C)cc2c1 [Example 213]  105 nM
15. COc1cc(C)c(-c2ccc3[nH]c(-c4cnccc4C)cc3c2)cn1 [Example 216, 5-(6-Methoxy-4-methyl-pyridin-3-yl)-2-(4-methyl-pyridin-3-yl)-1H-indole]  110 nM
16. Cc1cccc(C)c1-c1cc2cc(-c3nc(-c4cccnc4)sc3C)ccc2[nH]1 [Example 218, 2-(2,6-Dimethyl-phenyl)-5-(5-methyl-2-pyridin-3-yl-thiazol-4-yl)-1H-indole]  110 nM
17. Cc1cc(S(=O)(=O)N(C)C)ccc1-c1ccc2[nH]c(-c3c(F)cccc3F)c(C)c2c1 [Example 228, 4-[2-(2,6-Difluoro-phenyl)-3-methyl-1H-indol-5-yl]-3,N,N-trimethyl-benzenesulfonamide]  115 nM
18. CCn1nc(-c2cnccn2)cc1-c1ccc2[nH]c(-c3cnccc3C)cc2c1 [Example 211, 5-(2-Ethyl-5-pyrazin-2-yl-2H-pyrazo-1-3-yl)-2-(4-methyl-pyridin-3-yl)-1H-indole]  124 nM
19. Cc1cc(S(=O)(=O)N(C)C)ccc1-c1ccc2[nH]c(-c3ccccc3F)c(C)c2c1 [Example 225, 4-(2-(2-fluorophenyl)-3-methyl-1H-indol-5-yl)-N,N,3-trimethylbenzenesulfonamide]  153 nM
20. Cc1cccc(C)c1-c1cc2cc(-c3nc(-c4ccccn4)sc3C)ccc2[nH]1 [Example 219, 2-(2,6-Dimethyl-phenyl)-5-(5-methyl-2-pyridin-2-yl-thiazol-4-yl)-1H-indole]  158 nM
21. COc1cc(C)c(-c2ccc3[nH]c(-c4c(F)cccc4F)c(C)c3c2)cn1 [Example 229, 2-(2,6-Difluoro-phenyl)-5-(6-methoxy-4-methyl-pyridin-3-yl)-3-methyl-1H-indole]  164 nM
22. Cc1cc(Cl)ncc1-c1ccc2[nH]c(-c3cnccc3C)cc2c1 [Example 215, 5-(6-Chloro-4-methyl-pyridin-3-yl)-2-(4-methyl-pyridin-3-yl)-1H-indole]  235 nM
23. Cc1c(-c2c(F)cccc2F)[nH]c2ccc(-c3cc(C(F)(F)F)nn3C)cc12 [Example 227]  284 nM
24. Cc1cc(C#N)ncc1-c1ccc2[nH]c(-c3cnccc3C)cc2c1 [Example 212, 4-Methyl-5-[2-(4-methyl-pyridin-3-yl)-1H-indol-5-yl]-pyridine-2-carbonitrile]  447 nM
25. Cc1cc(S(=O)(=O)N(C)C)ccc1-c1ccc2[nH]c(-c3ccccc3)c(C)c2c1 [Example 226, N,N,3-trimethyl-4-(3-methyl-2-phenyl-1H-indol-5-yl)benzenesulfonamide]  602 nM
